According to ChEMBL document CHEMBL4715878 (J Med Chem, 2020):
The source made the active and inactive calls. No cut-off for these calls is given here.

Key:
[1] = biological target: T1, Receptor tyrosine-protein kinase erbB-2 (Homo sapiens, UniProt P04626); test: Inhibition of HER2 in human BT474 cells assessed as reduction in Akt phosphorylation at 0.5 IC50 after 24 to 48 hrs by Western blot analysis; type: cell-based; settings: BT-474, time 24-48 hrs
BT-474 [2] = test: Antitumor activity against human BT474 cells xenografted in athymic nude mouse assessed as tumor growth inhibition at 50 mg/kg, po administered via oral gavage for 5 times in a week for 55 days measured post last dose; type: functional, organism-based; settings: time 55.0 day
[3] = biological target: T1, Receptor tyrosine-protein kinase erbB-2; test: Inhibition of HER2 in human BT474 cells assessed as reduction in Akt phosphorylation at 0.1 IC50 incubated for 24 to 48 hrs by western blot analysis; type: cell-based; settings: BT-474, time 24-48 hrs
[4] = biological target: T1, Receptor tyrosine-protein kinase erbB-2; test: Inhibition of HER2 in human BT474 cells assessed as reduction in Erk1/2 phosphorylation at 0.1 IC50 incubated for 24 to 48 hrs by western blot analysis; type: cell-based; settings: BT-474, time 24-48 hrs
[5] = biological target: T1, Receptor tyrosine-protein kinase erbB-2; test: Inhibition of wild-type HER2 (unknown origin) at 0.5 nM in presence of substrate incubated for 30 mins by ADP-Glo assay relative to control
[6] = biological target: T1, Receptor tyrosine-protein kinase erbB-2; settings: Sf9, human, 0.5 h
[7] = Antiproliferative activity against human BC assessed as lethality at 10 uM after 48 hrs by SRB assay relative to control; type: functional
BT-474 [8] = test: Induction of apoptosis in human BT474 cells assessed as increase in early apoptotic cells at 0.5 to 5 uM incubated for 72 hrs by Annexin V-FITC/PI staining based flow cytometry analysis relative to control; type: functional; settings: dose 0.5-5 µM
AU565 [9] = test: Antiproliferative activity against human AU565 cells assessed as reduction in cell viability incubated for 72 hrs by WST8 assay; type: functional, cell-based; settings: AU565, 72 h
[10] = Antiproliferative activity against human BC assessed as cell growth inhibition at 10 uM after 48 hrs by SRB assay relative to control; type: functional; settings: read-out: GI
in vitro [11] = settings: CD-1, mouse, microsomes
[12] = biological target: T1, Receptor tyrosine-protein kinase erbB-2; test: Inhibition of HER2 in human BT474 cells assessed as reduction in Akt phosphorylation at 0.5 IC50 incubated for 24 to 48 hrs by western blot analysis; type: cell-based; settings: BT-474, time 24-48 hrs
[13] = biological target: T1, Receptor tyrosine-protein kinase erbB-2; test: Inhibition of HER2 in human BT474 cells assessed as reduction in Erk1/2 phosphorylation at 0.5 IC50 incubated for 24 to 48 hrs by western blot analysis; type: cell-based; settings: BT-474, time 24-48 hrs
BT-474 [14] = test: Antitumor activity against human BT474 cells xenografted in athymic nude mouse assessed as reduction in metastasis of cells at 50 mg/kg, po administered via oral gavage for 5 times per week for 55 days measured post-last dose; type: functional, organism-based; settings: time 55.0 day
[15] = tested on: Panel NCI-60 (60 carcinoma cell lines); test: Antiproliferative activity against human NCI60 cells assessed as lethality at 10 uM after 48 hrs by SRB assay relative to control; type: functional
MDA-MB-468 [16] = test: Antiproliferative activity against human MDA-MB-468 cells assessed as cell growth inhibition at 10 uM after 48 hrs by SRB assay relative to control; type: functional; settings: read-out: GI
[17] = tested on: Panel NCI-60 (60 carcinoma cell lines); test: Antiproliferative activity against human NCI60 cells assessed as mean cell growth at 10 uM after 48 hrs by SRB assay relative to control; type: functional
BT-474 [18] = test: Induction of apoptosis in human BT474 cells assessed as increase in early apoptotic cells incubated for 72 hrs by Annexin V-FITC/PI staining based flow cytometry analysis; type: functional, cell-based; settings: dose 0.1-5 µM
BT-474 [19] = test: Down regulation of HER2 expression in human BT474 cells at 0.1 IC50 after 24 to 48 hrs by Western blot analysis; type: functional, cell-based; settings: time 24-48 hrs
MDA-MB-468 [20] = test: Antiproliferative activity against human MDA-MB-468 cells assessed as lethality at 10 uM after 48 hrs by SRB assay relative to control; type: functional
[21] = Antiproliferative activity against human MDA-MB-231 cells assessed as lethality at 10 uM after 48 hrs by SRB assay relative to control; type: functional, MDA-MB-23
MCF7 [22] = test: Antiproliferative activity against human MCF7 cells assessed as reduction in cell viability incubated for 72 hrs by WST8 assay; type: functional, cell-based; settings: MCF7, 72 h
in vitro [23] = settings: CD-1, mouse, liver microsomes
Description: Metabolic stability in CD-1 mouse liver microsomes assessed as parent compound remaining at 100 uM measured after 60 mins in presence of NADPH by LC-MS/MS analysis

BT-474 [24] = test: Down regulation of HER2 expression in human BT474 cells at 0.5 IC50 after 24 to 48 hrs by Western blot analysis; type: functional, cell-based; settings: time 24-48 hrs
[25] = biological target: Epidermal growth factor receptor (Homo sapiens, UniProt P00533); settings: 0.5 h
Chain of Epidermal growth factor receptor (P00533 whole entry): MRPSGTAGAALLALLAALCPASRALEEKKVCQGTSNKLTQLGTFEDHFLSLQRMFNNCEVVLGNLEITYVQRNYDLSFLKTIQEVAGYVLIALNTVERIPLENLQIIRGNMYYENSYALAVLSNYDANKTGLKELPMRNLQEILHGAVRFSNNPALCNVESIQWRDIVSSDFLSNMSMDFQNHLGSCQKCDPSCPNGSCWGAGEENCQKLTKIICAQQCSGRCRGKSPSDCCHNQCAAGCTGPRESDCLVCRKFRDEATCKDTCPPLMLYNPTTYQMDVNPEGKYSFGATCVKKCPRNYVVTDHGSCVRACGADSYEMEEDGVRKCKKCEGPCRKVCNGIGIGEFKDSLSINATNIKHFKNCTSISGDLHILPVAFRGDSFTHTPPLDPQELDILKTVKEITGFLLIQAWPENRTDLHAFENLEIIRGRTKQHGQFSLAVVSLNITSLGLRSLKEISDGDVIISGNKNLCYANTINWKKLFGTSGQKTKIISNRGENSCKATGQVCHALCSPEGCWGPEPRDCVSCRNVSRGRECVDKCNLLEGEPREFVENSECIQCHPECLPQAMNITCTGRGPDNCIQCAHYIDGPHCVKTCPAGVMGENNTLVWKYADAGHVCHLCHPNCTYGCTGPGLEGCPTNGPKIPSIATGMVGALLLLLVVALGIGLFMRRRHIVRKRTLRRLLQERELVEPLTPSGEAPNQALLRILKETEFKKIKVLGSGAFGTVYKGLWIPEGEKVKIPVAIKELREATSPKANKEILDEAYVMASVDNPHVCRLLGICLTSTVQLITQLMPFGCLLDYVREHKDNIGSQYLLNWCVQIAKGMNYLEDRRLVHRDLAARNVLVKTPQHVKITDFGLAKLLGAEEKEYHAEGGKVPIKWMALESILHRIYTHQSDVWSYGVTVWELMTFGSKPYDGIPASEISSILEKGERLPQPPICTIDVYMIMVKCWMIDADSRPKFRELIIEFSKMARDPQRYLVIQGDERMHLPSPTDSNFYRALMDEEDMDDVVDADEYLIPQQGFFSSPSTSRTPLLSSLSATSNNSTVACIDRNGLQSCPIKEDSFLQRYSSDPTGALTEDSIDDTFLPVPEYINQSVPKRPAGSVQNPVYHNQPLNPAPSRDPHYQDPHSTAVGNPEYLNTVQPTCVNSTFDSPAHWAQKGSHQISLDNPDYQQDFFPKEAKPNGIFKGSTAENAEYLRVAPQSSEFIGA
Description: Effect on human EGFR in presence of substrate and [gamma-32ATP] at 10 uM incubated for 30 mins by scintillation counting based radiometry assay relative to control

BT-474 [26] = test: Antitumor activity against human BT474 cells xenografted in athymic nude mouse assessed as suppression of tumor growth by measuring decrease in number of Ki67 positive cells at 50 mg/kg, po administered via oral gavage for 5 times per week for 55 days measured post-last dose by Ki67-staining based immunohistochemistry; type: functional, organism-based; settings: time 55.0 day
BT-474 [27] = test: Antitumor activity against human BT474 cells xenografted in athymic nude mouse assessed as tumor necrosis at 50 mg/kg, po administered via oral gavage for 5 times in a week for 55 days measured post-last dose by H and E staining based immunohistochemical analysis; type: functional, organism-based; settings: time 55.0 day
BT-474 [28] = test: Antiproliferative activity against human BT474 cells assessed as reduction in cell viability incubated for 72 hrs by WST8 assay; type: functional, cell-based; settings: BT-474, 72 h
[29] = biological target: T1, Receptor tyrosine-protein kinase erbB-2; test: Inhibition of HER2 (unknown origin) in presence of substrate incubated for 30 mins by ADP-Glo assay
BT-474 [30] = test: Antitumor activity against human BT474 cells xenografted in athymic nude mouse assessed as appearance of tumor fibrosis at 50 mg/kg, po administered via oral gavage for 5 times in a week for 55 days measured post-last dose by H and E staining based immunohistochemical analysis; type: functional, organism-based; settings: time 55.0 day
in vitro [31] = settings: CD-1, mouse, liver microsomes; remark: listed apart in the source
in vitro [32] = settings: CD-1, mouse, liver microsomes; remark: listed apart in the source
BT-474 [33] = test: Antitumor activity against human BT474 cells xenografted in athymic nude mouse assessed as tumor weight at 50 mg/kg, po administered via oral gavage for 5 times in a week for 55 days measured post last dose (reference value: 2.046 g); type: functional; settings: time 55 day
BT-474 [34] = test: Induction of apoptosis in human BT474 cells assessed as increase in late apoptotic cells at 0.5 to 5 uM incubated for 72 hrs by Annexin V-FITC/PI staining based flow cytometry analysis relative to control; type: functional; settings: dose 0.5-5 µM
[35] = biological target: Platelet-derived growth factor receptor alpha (Homo sapiens, UniProt P16234); test: Effect on human recombinant N-terminal GST-tagged PDGFRalpha (550 to end residues) expressed in baculovirus infected Sf9 insect cells in presence of substrate and [gamma-32ATP] at 10 uM incubated for 30 mins by scintillation counting based radiometry assay relative to control; settings: 0.5 h, read-out: Activity
Chain of Platelet-derived growth factor receptor alpha (P16234 whole entry): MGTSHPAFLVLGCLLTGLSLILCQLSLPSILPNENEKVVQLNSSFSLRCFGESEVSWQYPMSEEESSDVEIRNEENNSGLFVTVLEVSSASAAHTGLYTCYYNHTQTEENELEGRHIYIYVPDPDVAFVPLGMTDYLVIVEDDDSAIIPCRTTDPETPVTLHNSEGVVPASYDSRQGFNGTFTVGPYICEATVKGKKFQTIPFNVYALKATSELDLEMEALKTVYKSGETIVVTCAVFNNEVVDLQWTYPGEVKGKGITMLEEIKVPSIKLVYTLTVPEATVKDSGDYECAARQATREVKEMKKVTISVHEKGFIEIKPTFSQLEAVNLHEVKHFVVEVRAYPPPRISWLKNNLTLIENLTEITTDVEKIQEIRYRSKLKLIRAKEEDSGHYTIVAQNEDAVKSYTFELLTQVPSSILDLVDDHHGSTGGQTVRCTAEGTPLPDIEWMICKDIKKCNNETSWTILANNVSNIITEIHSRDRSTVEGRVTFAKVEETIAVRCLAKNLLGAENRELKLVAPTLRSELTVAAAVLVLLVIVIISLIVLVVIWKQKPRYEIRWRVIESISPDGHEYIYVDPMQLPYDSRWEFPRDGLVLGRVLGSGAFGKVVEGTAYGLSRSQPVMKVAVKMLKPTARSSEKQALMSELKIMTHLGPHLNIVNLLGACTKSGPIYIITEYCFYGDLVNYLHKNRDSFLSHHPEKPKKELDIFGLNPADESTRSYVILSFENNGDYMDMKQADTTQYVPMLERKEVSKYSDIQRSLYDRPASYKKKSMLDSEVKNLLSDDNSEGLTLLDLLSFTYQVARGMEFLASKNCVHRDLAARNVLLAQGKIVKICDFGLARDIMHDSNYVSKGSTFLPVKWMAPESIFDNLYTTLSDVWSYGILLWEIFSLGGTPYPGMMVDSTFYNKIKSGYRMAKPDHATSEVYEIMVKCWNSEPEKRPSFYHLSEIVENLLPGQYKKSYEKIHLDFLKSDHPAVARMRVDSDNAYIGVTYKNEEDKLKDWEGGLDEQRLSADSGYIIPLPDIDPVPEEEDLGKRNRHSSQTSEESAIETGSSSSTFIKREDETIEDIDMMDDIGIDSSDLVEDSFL

[36] = biological target: T1, Receptor tyrosine-protein kinase erbB-2; test: Inhibition of HER2 in human BT474 cells assessed as reduction in Akt phosphorylation at 0.1 IC50 after 24 to 48 hrs by Western blot analysis; type: cell-based; settings: BT-474, time 24-48 hrs
BT-474 [37] = test: Antitumor activity against human BT474 cells xenografted in athymic nude mouse assessed as inflammation in tumors at 50 mg/kg, po administered via oral gavage for 5 times per week for 55 days measured post-last dose by H and E staining based immunohistochemical analysis; type: functional, organism-based; settings: time 55.0 day
MDA-MB-231 [38] = test: Antiproliferative activity against human MDA-MB-231 cells assessed as reduction in cell viability incubated for 72 hrs by WST8 assay; type: functional, cell-based; settings: MDA-MB-231, 72 h
MCF7 [39] = test: Antiproliferative activity against human MCF7 cells assessed as lethality at 10 uM after 48 hrs by SRB assay relative to control; type: functional
[40] = biological target: Receptor tyrosine-protein kinase erbB-4 (Homo sapiens, UniProt Q15303); test: Effect on human recombinant N-terminal GST-tagged HER4 (682 to 993) expressed in baculovirus infected Sf9 insect cells in presence of substrate and [gamma-32ATP] at 10 uM incubated for 30 mins by scintillation counting based radiometry assay relative to control; settings: 0.5 h, read-out: Activity
Chain of Receptor tyrosine-protein kinase erbB-4 (Q15303 whole entry): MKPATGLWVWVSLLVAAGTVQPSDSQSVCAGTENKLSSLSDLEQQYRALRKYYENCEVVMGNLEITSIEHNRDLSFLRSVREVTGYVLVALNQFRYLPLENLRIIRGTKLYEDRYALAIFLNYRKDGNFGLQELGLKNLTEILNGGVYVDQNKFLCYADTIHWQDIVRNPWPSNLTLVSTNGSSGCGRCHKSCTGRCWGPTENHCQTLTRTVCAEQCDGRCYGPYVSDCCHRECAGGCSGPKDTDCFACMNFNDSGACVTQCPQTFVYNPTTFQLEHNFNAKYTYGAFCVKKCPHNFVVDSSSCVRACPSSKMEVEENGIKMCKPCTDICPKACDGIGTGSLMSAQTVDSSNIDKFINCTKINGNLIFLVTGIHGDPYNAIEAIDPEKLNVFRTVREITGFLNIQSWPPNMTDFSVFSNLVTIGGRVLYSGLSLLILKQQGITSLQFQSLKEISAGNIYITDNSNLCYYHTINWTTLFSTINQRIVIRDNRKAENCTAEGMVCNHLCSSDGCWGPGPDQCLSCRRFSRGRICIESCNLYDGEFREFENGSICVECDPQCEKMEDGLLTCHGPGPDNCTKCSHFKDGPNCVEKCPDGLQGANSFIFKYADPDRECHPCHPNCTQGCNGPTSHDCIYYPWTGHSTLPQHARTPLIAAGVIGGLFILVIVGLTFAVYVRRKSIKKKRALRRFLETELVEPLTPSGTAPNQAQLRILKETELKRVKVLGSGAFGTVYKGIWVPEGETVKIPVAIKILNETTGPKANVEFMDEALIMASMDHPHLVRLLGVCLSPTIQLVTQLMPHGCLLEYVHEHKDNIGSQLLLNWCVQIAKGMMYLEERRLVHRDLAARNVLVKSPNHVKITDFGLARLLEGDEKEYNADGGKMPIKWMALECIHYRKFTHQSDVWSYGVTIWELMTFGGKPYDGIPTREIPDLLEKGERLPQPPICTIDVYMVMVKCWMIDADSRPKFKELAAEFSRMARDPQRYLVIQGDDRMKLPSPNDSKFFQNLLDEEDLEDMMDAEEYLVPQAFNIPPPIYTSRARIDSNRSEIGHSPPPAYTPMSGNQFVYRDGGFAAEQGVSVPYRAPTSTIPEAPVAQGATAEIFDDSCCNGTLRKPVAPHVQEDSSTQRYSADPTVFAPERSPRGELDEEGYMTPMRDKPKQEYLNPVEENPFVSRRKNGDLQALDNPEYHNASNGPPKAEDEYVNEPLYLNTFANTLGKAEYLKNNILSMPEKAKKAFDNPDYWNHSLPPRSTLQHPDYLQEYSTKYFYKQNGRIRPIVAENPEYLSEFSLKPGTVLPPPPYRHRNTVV

MDA-MB-468 [41] = test: Antiproliferative activity against human MDA-MB-468 cells assessed as cell growth inhibition after 48 hrs by SRB assay; type: functional
in vitro [42] = settings: CD-1, mouse, liver microsomes; remark: listed apart in the source
Description: Metabolic stability in CD-1 mouse liver microsomes assessed as parent compound remaining at 100 uM measured after 60 mins by LC-MS/MS analysis

MDA-MB-231 [43] = test: Induction of apoptosis in human MDA-MB-231 cells assessed as accumulation in early apoptotic cells at 5 uM incubated for 72 hrs by Annexin V-FITC/PI staining based flow cytometry analysis; type: functional, cell-based
MCF7 [44] = test: Induction of apoptosis in human MCF7 cells assessed as accumulation in early apoptotic cells at 5 uM incubated for 72 hrs by Annexin V-FITC/PI staining based flow cytometry analysis; type: functional, cell-based
MDA-MB-231 [45] = test: Induction of apoptosis in human MDA-MB-231 cells assessed as accumulation in late apoptotic cells at 5 uM incubated for 72 hrs by Annexin V-FITC/PI staining based flow cytometry analysis; type: functional, cell-based
T47D = test: Antiproliferative activity against human T47D cells assessed as cell growth inhibition after 48 hrs by SRB assay; type: functional; settings: pooled result: one value given for 5 cell lines, strains, targets or settings
AU565 [46] = test: Down regulation of HER2 expression in human AU565 cells at 0.5 IC50 incubated for 72 hrs by Western blot analysis; type: functional, cell-based
MCF7 [47] = test: Induction of apoptosis in human MCF7 cells assessed as accumulation in late apoptotic cells at 5 uM incubated for 72 hrs by Annexin V-FITC/PI staining based flow cytometry analysis; type: functional, cell-based

T1 sequence (P04626 whole entry): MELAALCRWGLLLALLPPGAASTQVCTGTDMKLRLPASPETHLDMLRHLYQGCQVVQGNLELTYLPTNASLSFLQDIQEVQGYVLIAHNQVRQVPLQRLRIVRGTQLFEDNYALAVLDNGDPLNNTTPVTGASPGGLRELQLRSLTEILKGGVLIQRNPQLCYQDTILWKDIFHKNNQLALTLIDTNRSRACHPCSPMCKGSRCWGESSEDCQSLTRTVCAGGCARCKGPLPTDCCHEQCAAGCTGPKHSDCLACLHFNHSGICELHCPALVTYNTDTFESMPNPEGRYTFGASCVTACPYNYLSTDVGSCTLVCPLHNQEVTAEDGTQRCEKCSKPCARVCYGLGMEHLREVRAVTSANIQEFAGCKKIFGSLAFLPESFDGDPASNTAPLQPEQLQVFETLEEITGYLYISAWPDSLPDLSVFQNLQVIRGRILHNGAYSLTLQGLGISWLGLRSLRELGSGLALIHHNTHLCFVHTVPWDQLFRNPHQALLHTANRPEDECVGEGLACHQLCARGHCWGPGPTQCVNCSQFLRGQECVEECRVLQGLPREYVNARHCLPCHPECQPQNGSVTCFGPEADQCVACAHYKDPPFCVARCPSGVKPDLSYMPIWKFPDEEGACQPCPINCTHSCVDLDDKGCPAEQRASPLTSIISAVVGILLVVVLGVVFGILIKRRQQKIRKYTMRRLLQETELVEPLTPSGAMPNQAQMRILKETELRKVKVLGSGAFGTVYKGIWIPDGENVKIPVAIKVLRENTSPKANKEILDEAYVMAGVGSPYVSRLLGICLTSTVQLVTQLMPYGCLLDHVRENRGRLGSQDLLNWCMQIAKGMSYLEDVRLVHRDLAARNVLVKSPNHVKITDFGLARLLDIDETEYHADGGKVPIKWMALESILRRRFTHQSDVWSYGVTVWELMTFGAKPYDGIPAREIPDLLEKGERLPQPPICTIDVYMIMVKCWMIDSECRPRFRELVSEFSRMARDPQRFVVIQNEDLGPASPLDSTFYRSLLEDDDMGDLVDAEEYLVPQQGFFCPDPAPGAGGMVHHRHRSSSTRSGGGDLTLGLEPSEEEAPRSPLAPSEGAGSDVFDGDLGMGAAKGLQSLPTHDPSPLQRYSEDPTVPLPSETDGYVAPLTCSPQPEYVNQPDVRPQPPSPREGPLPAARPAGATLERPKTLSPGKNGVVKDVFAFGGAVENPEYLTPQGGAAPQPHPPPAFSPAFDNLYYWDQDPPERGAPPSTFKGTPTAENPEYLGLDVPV

SMILES: O=C(Nc1ccc2ncnc(Nc3ccc(Oc4cccc(F)c4)c(Cl)c3)c2c1)c1ccc(CNCCO)cc1
- inhibition [1]: Active
- TGI (BT-474 [2]): Active
- inhibition [3]: Active
- inhibition [4]: Active
- inhibition [5]: 3%
- activity at 10 µM [6]: -92%
- Activity [7]: <=78.7%
- fold change (FC) (BT-474 [8]): <=6
- IC50 (AU565 [9]): 205 nM
- inhibition of growth at 10 µM [10]: ≤ 78.7%
- microsomal CLint at 1 h, 100 µM (in vitro [11]): < 9.6 µL/min/mg
- inhibition [12]: Active
- inhibition [13]: Active
- Activity (BT-474 [14]): Active
- Activity [15]: 1.3%
- inhibition of growth at 10 µM (MDA-MB-468 [16]): 18.8%
- Activity [17]: 11.85%
- Activity (BT-474 [18]): Dose-dependent effect
- Activity (BT-474 [19]): Active
- Activity (MDA-MB-468 [20]): 18%
- Activity [21]: 18%
- IC50 (MCF7 [22]): 5640 nM
- remaining at 1 h, 100 µM (in vitro [23]): 103%
- Activity (BT-474 [24]): Active
- activity at 10 µM [25]: -70%
- Activity (BT-474 [26]): Active
- Activity (BT-474 [27]): Active
- IC50 (BT-474 [28]): 204 nM
- IC50 [29]: 12 nM
- Activity (BT-474 [30]): Active
- CLint scaled at 1 h, 100 µM (in vitro [31]): < 38 mL/min/kg
- half-life at 1 h, 100 µM (in vitro [32]): > 2.42 h
- Activity (BT-474 [33]): 0.572 g
- Activity (BT-474 [34]): inactive
- activity at 10 µM [35]: -4%
- inhibition [36]: Active
- Activity (BT-474 [37]): Active
- IC50 (MDA-MB-231 [38]): 5230 nM
- Activity (MCF7 [39]): 18%
- activity at 10 µM [40]: -98%
- GI50 (MDA-MB-468 [41]): 600 nM
- remaining at 1 h, 100 µM (in vitro [42]): 100%

SMILES: Cc1cccc(Oc2ccc(Nc3ncnc4ccc(NC(=O)CN5CCN(C)CC5)cc34)cc2Cl)c1
- Activity (MDA-MB-231 [43]): inactive
- Activity (MCF7 [44]): inactive
- Activity (MDA-MB-231 [45]): inactive
- inhibition [5]: 3%
- Activity [7]: <=78.7%
- fold change (FC) (BT-474 [8]): <=6
- IC50 (AU565 [9]): 135 nM
- inhibition of growth at 10 µM [10]: ≤ 78.7%
- GI50 (T47D): 1210 nM
- Activity [15]: 1.3%
- inhibition of growth at 10 µM (MDA-MB-468 [16]): 18.8%
- Activity [17]: 11.85%
- Activity (BT-474 [18]): Dose-dependent effect
- Activity (MDA-MB-468 [20]): 18%
- Activity [21]: 18%
- IC50 (MCF7 [22]): 2650 nM
- IC50 (BT-474 [28]): 81 nM
- IC50 [29]: 5.4 nM
- Activity (AU565 [46]): inactive
- fold change (FC) (BT-474 [34]): <=3
- Activity (MCF7 [47]): inactive
- IC50 (MDA-MB-231 [38]): 4500 nM
- Activity (MCF7 [39]): 18%
- GI50 (MDA-MB-468 [41]): 400 nM
